From US11603343B2, “Inhibition of DYRK1A kinase” (Ankh Life Sciences Limited, priority 2020, dated 2023)

Target: T1, human DYRK1A (Homo sapiens, UniProt Q13627)
T1 construct: host or cells: E. coli BL21(DE3)
Experiment: ELISA DYRK1A non-radioactive phosphorylation assay (HT-PRD substrate)
Format: biochemical
Method: In order to determine the effectiveness of the DYRK1A inhibitors of the invention, a series of ELISA assays were performed, along with Western Blot assays.
The ELISA assays were devised as a modified form of the assay described in Liu et al. “An ELISA DYRK1A non-radioactive assay suitable for the characterization of inhibitors,” F1000Research 2017, 6:42 (doi: 10.12688/f1000research.10582.1), incorporated by reference herein in its entirety.
Specifically, human DYRK1A (Addgene #38913) and HT-PRD (Addgene #87755) plasmids were obtained from Addgene and were expressed and purified using Ni affinity chromatography, as explained below. Proteins were quantified by the conventional Bradford method and stored at −80° C. until used.
HT-PRD was diluted in dilution buffer (25 mM Tris-HCl, pH 7.4 and 100 mM NaCl) to 4 ng/μL and used to coat a 96-well plate (BD Falcon #353072) with 100 μL per well at 4° C. overnight.
The wells were next washed with dilution buffer 3 times to remove unbound materials, and then the wells were blocked with 150 μL blocking buffer (2% BSA, 1×PBS, and 0.25% Tween 20) at room temperature for 60 minutes with shaking on a shaker.
After the 60-minute shaking period, the wells were washed thoroughly with dilution buffer 3 times to prepare for the phosphorylation in the next step.
Duplicate DYRK1A phosphorylation reactions were performed in the wells with 100 μL reaction mixtures each containing 25 mM HEPES, pH 7.4, 100 mM NaCl, 5 mM MgCl2, 100 μM ATP, 1% DMSO, and 200 ng/mL DYRK1A. Separate reaction mixtures included a no-inhibitor DMSO control, harmine inhibitor, and different concentrations of the inhibitors of the present invention. The plate was left on a temperature-controlled shaker for 30 minutes at 30° C.
The phosphorylation reactions were terminated after the 30-minute shaking, by the addition of 20 mM EDTA. The wells were then washed with PBST (0.02% Tween 20).
HT-PRD phosphorylation was determined by the sandwich antibody staining protocol. […] The extent of the phosphorylation reactions was monitored at λ=405 nm. […]

[1] = tested at 5 μg/mL, significantly greater than DMSO and any of the other fractions at the same level of use (FIG. 1)

Row | SMILES | inhibition of DYRK1A [1] | inhibition of DYRK1A (reference inhibitor, text says 100 μg/mL, sample table lists harmine 2 μM and 10 μM (FIG. 1))
1 | Cc1c(O)cc(C(C)C)c(O)c1Cc1cc(O)c(C(C)C)cc1O [compound XVIII] | very pronounced inhibition of DYRK1A | –
2 | COc1ccc2c3c([nH]c2c1)C(C)=NCC3 [harmaline, reference compound] | – | showed inhibition of DYRK1A
3 | Cc1c(O)cc(C(C)C)c(O)c1CC1=CC(=O)C(C(C)C)=CC1=O [compound XVII] | very pronounced inhibition of DYRK1A | –
